# Test results as given in paper PMC4568483, “A spheroid toxicity assay using magnetic 3D bioprinting and real-time mobile device-based imaging” (Scientific Reports, 2015).
# Like-named read-outs stand apart in the source and are kept apart here.
# Key:
# [1] = tested on: 3T3s in 2D; experiment: MTT assay on 2D monolayers, viability after 72 h; type: cell-based, murine; conditions: for IC50 / MTT IC50: 2D, viability at 72 h; for Effect on viability in 2D: MTT
# Experimental: The MTT assay was performed to compare its endpoint, viability of 3T3s in 2D after 72 h, with spheroid contraction. 3T3s were seeded on 96-well plates (n = 3 per compound concentration) at a concentration of 2.5 × 10^4 cells/well to adhere overnight. The following day, compounds were added to each well at the desired concentration. After 72 hours of incubation, the media was replaced with 10% MTT (Sigma-Aldrich) in media. The cells were incubated with the reagent for at least 4 hours at 37 °C. Following incubation, the media was aspirated and the remaining formazan was dissolved in acidified isopropanol (0.1 N HCl). The absorbance of the solution was then read at 570 nm in a spectrophotometer (SpectraMax Plus 384, Molecular Devices, Sunnyvale, CA) with background subtraction at 690 nm. Dose-response curves were plotted and fit to a Boltzmann sigmoidal function (OriginPro) similarly to the spheroid toxicity assay.
# [2] = tested on: 3T3s; conditions: 2D, read-out: Literature IC50, cited from earlier work
# [3] = tested on: 3T3 spheroids; experiment: Spheroid toxicity assay (contraction of magnetically 3D bioprinted spheroids, mobile device imaging); type: cell-based, murine
# Experimental: The spheroid toxicity assay was designed to rapidly assess toxicity in M3DB spheroids (Fig. 1A)[26]. At 70–80% confluence, 3T3s grown in 2D were statically incubated overnight with magnetic nanoparticles, allowing for nanoparticle association with the cells (NanoShuttle, Nano3D Biosciences, Houston, TX) at a concentration of 1 μL/1 × 10^4 cells (50 pg/cell)[18][25]. Cells were magnetized by the electrostatic and non-specific attachment of nanoparticles to the cell membrane via poly-L-lysine. Once attached onto the membrane, the nanoparticles remain for 7–8 d before releasing into the ECM[18]. If internalized, the nanoparticles will exit the cell still attached to the membrane.
# After magnetization, the cells were enzymatically detached with trypsin, resuspended in media, then distributed into ultra-low attachment 6-well plates (Corning, Tewksbury, MA) at a concentration of 3.2 × 10^6 cells in 2 mL (1.6 × 10^6 cells/mL). A magnetic drive of 6 neodymium magnets (Nano3D Biosciences) was placed atop the well plate to levitate the cells in 3D (500 G, 30 pN, see Supplemental Fig. S12). The purpose of this levitation step was to induce ECM formation, as was shown previously with primary human pulmonary fibroblasts and tracheal smooth muscle cells that extruded laminin after 1 h of levitation. […] After 1 h of levitation, the levitated cultures were broken up and resuspended in media using pipette action to yield a suspension of magnetized cells and ECM, which was distributed into an ultra-low attachment 96-well plate (Corning) at a concentration of 7.5 × 10^4 cells/well (n = 3 per compound concentration). Immediately afterwards, the plate was placed atop a magnetic drive of 96 neodymium magnets (0.0625” OD, Nano3D Biosciences) to attract the cells (120 G, 10 pN, see Supplemental Fig. S12) and ECM to the bottom of the well to form a spheroid. These spheroids were printed on the magnets for 15 min. At this point, the cells within the spheroids were connected but loose, and their competency could be empirically assessed by their ability to stay together when the magnet was removed. Towards the end of the printing time, compounds were added to the wells achieve their final concentrations. The plate was then removed from the magnet and the spheroids were allowed to contract.
# M3DB spheroids and their contraction were imaged using a mobile device-based imaging system (Fig. 1B)[26]. After printing, the plate of spheroids were placed atop an acrylic imaging apparatus with a mobile device (iPod touch 5th generation, 16 GB, Apple Computer, Cupertino, CA) below the plate facing upwards, and a light source (LightPad A920, Artograph, Delano, MN) above the plate to illuminate the images. The mobile device was programmed using an application (Experimental Assistant, Nano3D Biosciences) to image the plate every 4 min for a period of 10 h. When the spheroids had finished contracting, the images were transferred to a computer where they were analyzed using a custom image analysis code written in Python that processed thousands of images in hours. The area of the spheroid was measured over time, as well as the rate of contraction for the first 150 min using a linear least-squares fit (OriginPro, OriginLab, Northampton, MA). The rates of contraction served as the endpoint for the assay, and were plotted against compound concentration and fit to a Boltzmann sigmoidal function (OriginPro) from which the IC50’s were determined.
# [4] = tested on: 3T3 spheroids; experiment: MTT assay on 3T3 spheroids; type: cell-based, murine; conditions: 3D spheroids
# Description: Figure S7: Dose response curves of 3T3 spheroids exposed to ATRA, SDS, and penicillin-G as measured by the MTT assay.
# [5] = tested on: 3T3 spheroids; experiment: Gene expression profiling (mRNA sequencing) of spheroids with and without ATRA; conditions: 41.6 μM ATRA
# [6] = Mus musculus, 2.5 h, 3D, endpoint rate of contraction over 150 min
# [7] = ref NIEHS Registry of Cytotoxicity [35]
# [8] = 3D, endpoint rate of contraction over 150 min
compound,measurement,setting,value
"C=C[C@@]1(C)CC(=O)[C@]2(O)[C@@]3(C)[C@@H](O)CCC(C)(C)[C@@H]3[C@H](O)[C@H](OC(C)=O)[C@@]2(C)O1 [Forskolin, forskolin]",IC50,[1]; Mus musculus,0.6 µM
same,IC50,"[2]; ref Varrault et al., 1992 [46]",26 µM
same,IC50,[3]; [6],4.7 µM
"CC1(C)S[C@@H]2[C@H](NC(=O)Cc3ccccc3)C(=O)N2[C@H]1C(=O)O [Penicillin-G, penicillin-G]",Dose response of spheroid viability by MTT,[4],significant dose-dependent response
same,IC50,[1]; Mus musculus,1770 µM
same,IC50,[2]; [7],5730 µM
same,Spheroid Assay IC50,[3]; [8],n.s.
same,Effect on spheroid contraction,[3]; rate of contraction over first 150 min,no effect on spheroid contraction
"COc1cccc2c1C(=O)c1c(O)c3c(c(O)c1C2=O)C[C@@](O)(C(=O)CO)C[C@@H]3O[C@H]1C[C@H](N)[C@H](O)[C@H](C)O1 [Doxorubicin, doxorubicin]",IC50,[1]; Mus musculus,12.7 µM
same,IC50,[2]; [7],0.33 µM
same,IC50,[3]; [6],46.7 µM
"C[C@@H]1C[C@H]2[C@@H]3CCC4=CC(=O)C=C[C@]4(C)[C@@]3(F)[C@@H](O)C[C@]2(C)[C@@]1(O)C(=O)CO [Dexamethasone, dexamethasone]",MTT IC50,[1],n.s.
same,Effect on viability in 2D,[1]; 72 h,no significant effect
same,IC50,"[2]; ref Nakada et al., 1987 [45]",0.00277 µM
same,IC50,[3]; [6],84.6 µM
O=c1[nH]cc(F)c(=O)[nH]1 [5′-fluorouracil],MTT IC50,[1],n.s.
same,Effect on viability in 2D,[1]; 72 h,no significant effect
same,IC50,[2]; [7],2.6 µM
same,IC50,[3]; [8],253 µM
"CC1=C(/C=C/C(C)=C/C=C/C(C)=C/C(=O)O)C(C)(C)CCC1 [ATRA, all-trans retinoic acid]",Dose response of spheroid viability by MTT,[4],significant dose-dependent response
same,Fate of 3T3s in 2D on exposure,"[1]; 2D culture, 41.6 μM ATRA, 72 h",lysed before 72 h
same,IC50,[1]; Mus musculus,24.7 µM
same,"Expression of genes for apoptotic inhibitors (BCL2, BIRC2, BIRC3)",[5],downregulation
same,Expression of the gene for p53,[5],upregulation
same,Number of genes downregulated as a function of exposure,[5],40 genes
same,Number of genes expressed differently between exposed and unexposed spheroids,"[5]; 72 h exposure, 364 genes profiled",99 genes
same,IC50,"[2]; ref Seiler et al., 2011 [16]",20 µM
same,Concentration at and above which spheroid contraction was affected,[3],≥ 41.6 µM
same,IC50,[3]; [6],82.8 µM
"CCCCCCCCCCCCOS(=O)(=O)[O-].[Na+] [SDS, sodium dodecyl sulfate]",Dose response of spheroid viability by MTT,[4],significant dose-dependent response
same,IC50,[1],167 µM
same,IC50,[2]; [7],270 µM
same,IC50,[3]; [8],282 µM
